#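 How tested: cells in 96-well plates exposed to compound for 48 hours at five concentrations. At the GI50, growth is halved. The concentration for full growth arrest is given as TGI.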
# How the values were obtained:
# Test in all cases: NCI anticancer screen, dose series, 48 h
# [1] = test system: 786-0 renal
# [2] = test system: A498 renal
# [3] = test system: A549 NSCLC
# [4] = test system: ACHN renal
# [5] = test system: BT-549 breast
# [6] = test system: CAKI-1 renal
# [7] = test system: CCRF-CEM leukemia
# [8] = test system: COLO 205 colon
# [9] = test system: DU-145 prostate
# [10] = test system: EKVX NSCLC
# [11] = test system: HCC-2998 colon
# [12] = test system: HCT-116 colon
# [13] = test system: HCT-15 colon
# [14] = test system: HL-60(TB) leukemia
# [15] = test system: HOP-62 NSCLC
# [16] = test system: HOP-92 NSCLC
# [17] = test system: HS 578T breast
# [18] = test system: HT29 colon
# [19] = test system: IGROV1 ovarian
# [20] = test system: K-562 leukemia
# [21] = test system: KM12 colon
# [22] = test system: M14 melanoma
# [23] = test system: MALME-3M melanoma
# [24] = test system: MCF7 breast
# [25] = test system: MDA-MB-231 breast
# [26] = test system: MDA-MB-435
# [27] = test system: MOLT-4 leukemia
# [28] = test system: NCI-H226 lung
# [29] = test system: NCI-H23 lung
# [30] = test system: NCI-H460 lung
# [31] = test system: NCI-H522 lung
# [32] = test system: NCI/ADR-RES ovarian
# [33] = test system: OVCAR-3 ovarian
# [34] = test system: OVCAR-4 ovarian
# [35] = test system: OVCAR-5 ovarian
# [36] = test system: PC-3 prostate
# [37] = test system: RPMI-8226 leukemia
# [38] = test system: RXF 393 renal
# [39] = test system: SF-268 CNS
# [40] = test system: SF-295 CNS
# [41] = test system: SF-539 CNS
# [42] = test system: SK-MEL-2 melanoma
# [43] = test system: SK-MEL-28 melanoma
# [44] = test system: SK-MEL-5 melanoma
# [45] = test system: SK-OV-3 ovarian
# [46] = test system: SN12C renal
# [47] = test system: SNB-19 CNS
# [48] = test system: SNB-75 CNS
# [49] = test system: SR leukemia
# [50] = test system: SW-620 colon
# [51] = test system: T-47D breast
# [52] = test system: TK-10 renal
# [53] = test system: U251 CNS
# [54] = test system: UACC-257 melanoma
# [55] = test system: UO-31 renal
# [56] = test system: LOX IMVI melanoma
# [57] = test system: MDA-N
# [58] = test system: OVCAR-8 ovarian
structure (smiles),measurement,setting,value
Cc1cc(C(O)CN(C)C)cc2c1ccc1cc(C(C)C)ccc12 (stereo unspecified),GI50,[1],1.84 µM
same,TGI,[1],3.4 µM
same,GI50,[2],2.36 µM
same,TGI,[2],11.7 µM
same,GI50,[3],1.93 µM
same,TGI,[3],3.54 µM
same,GI50,[4],1.87 µM
same,TGI,[4],3.65 µM
same,GI50,[5],5.67 µM
same,TGI,[5],19.5 µM
same,GI50,[6],1.42 µM
same,TGI,[6],3.11 µM
same,GI50,[7],2.48 µM
same,TGI,[7],5.65 µM
same,GI50,[8],1.73 µM
same,TGI,[8],3.32 µM
same,GI50,[9],2.19 µM
same,TGI,[9],4.08 µM
same,GI50,[10],3.39 µM
same,TGI,[10],17.9 µM
same,GI50,[11],1.57 µM
same,TGI,[11],3.16 µM
same,GI50,[12],1.8 µM
same,TGI,[12],3.29 µM
same,GI50,[13],1.81 µM
same,TGI,[13],3.61 µM
same,GI50,[14],1.89 µM
same,TGI,[14],4.08 µM
same,GI50,[15],1.59 µM
same,TGI,[15],3.08 µM
same,GI50,[16],1.83 µM
same,TGI,[16],6.45 µM
same,GI50,[17],2.58 µM
same,TGI,[17],8.92 µM
same,GI50,[18],1.56 µM
same,TGI,[18],3.62 µM
same,GI50,[19],1.85 µM
same,TGI,[19],3.8 µM
same,GI50,[20],2.15 µM
same,TGI,[20],4.88 µM
same,GI50,[21],1.82 µM
same,TGI,[21],3.32 µM
same,GI50,[22],2.02 µM
same,TGI,[22],4.03 µM
same,GI50,[23],1.92 µM
same,TGI,[23],3.83 µM
same,GI50,[24],1.71 µM
same,TGI,[24],3.19 µM
same,GI50,[25],1.64 µM
same,TGI,[25],3.55 µM
same,GI50,[26],1.79 µM
same,TGI,[26],3.64 µM
same,GI50,[27],2.16 µM
same,TGI,[27],5.22 µM
same,GI50,[28],2.66 µM
same,TGI,[28],8.84 µM
same,GI50,[29],2.85 µM
same,TGI,[29],10.6 µM
same,GI50,[30],1.74 µM
same,TGI,[30],3.43 µM
same,GI50,[31],1.84 µM
same,TGI,[31],3.72 µM
same,GI50,[32],2.07 µM
same,TGI,[32],5.47 µM
same,GI50,[33],1.92 µM
same,TGI,[33],3.6 µM
same,GI50,[34],2.33 µM
same,TGI,[34],4.84 µM
same,GI50,[35],2.02 µM
same,TGI,[35],4.36 µM
same,GI50,[36],2.24 µM
same,TGI,[36],5.77 µM
same,GI50,[37],2.36 µM
same,TGI,[37],5.12 µM
same,GI50,[38],1.78 µM
same,TGI,[38],3.36 µM
same,GI50,[39],2.8 µM
same,TGI,[39],7.73 µM
same,GI50,[40],1.85 µM
same,TGI,[40],3.54 µM
same,GI50,[41],1.98 µM
same,TGI,[41],3.59 µM
same,GI50,[42],2 µM
same,TGI,[42],3.92 µM
same,GI50,[43],1.88 µM
same,TGI,[43],3.36 µM
same,GI50,[44],1.76 µM
same,TGI,[44],3.16 µM
same,GI50,[45],4.58 µM
same,TGI,[45],20 µM
same,GI50,[46],3.19 µM
same,TGI,[46],20.6 µM
same,GI50,[47],2.07 µM
same,TGI,[47],4.75 µM
same,GI50,[48],1.72 µM
same,TGI,[48],3.67 µM
same,GI50,[49],1.96 µM
same,TGI,[49],5.21 µM
same,GI50,[50],1.79 µM
same,TGI,[50],3.5 µM
same,GI50,[51],2.04 µM
same,TGI,[51],4.48 µM
same,GI50,[52],1.77 µM
same,TGI,[52],3.36 µM
same,GI50,[53],1.92 µM
same,TGI,[53],3.53 µM
same,GI50,[54],2.11 µM
same,TGI,[54],3.79 µM
same,GI50,[55],1.58 µM
same,TGI,[55],3.72 µM
C#CCN(Cc1ccc2nc(N)[nH]c(=O)c2c1)c1ccc(C(=O)NC(CCC(=O)O)C(=O)O)cc1 (stereo unspecified),TGI,[1],> 100 µM
same,TGI,[2],> 100 µM
same,TGI,[3],> 100 µM
same,TGI,[4],> 100 µM
same,TGI,[5],> 100 µM
same,TGI,[6],> 100 µM
same,TGI,[7],> 100 µM
same,TGI,[8],> 100 µM
same,TGI,[9],> 100 µM
same,TGI,[10],> 100 µM
same,TGI,[11],> 100 µM
same,TGI,[12],> 100 µM
same,TGI,[13],> 100 µM
same,TGI,[14],> 100 µM
same,TGI,[15],> 100 µM
same,TGI,[16],> 100 µM
same,TGI,[18],> 100 µM
same,TGI,[19],> 100 µM
same,TGI,[21],> 100 µM
same,TGI,[56],> 100 µM
same,TGI,[22],> 100 µM
same,TGI,[23],> 100 µM
same,TGI,[24],> 100 µM
same,TGI,[25],> 100 µM
same,TGI,[26],> 100 µM
same,TGI,[57],> 100 µM
same,TGI,[27],> 100 µM
same,TGI,[28],> 100 µM
same,TGI,[29],> 100 µM
same,TGI,[30],> 100 µM
same,TGI,[32],> 100 µM
same,TGI,[33],> 100 µM
same,TGI,[35],> 100 µM
same,TGI,[58],> 100 µM
same,TGI,[36],> 100 µM
same,TGI,[37],> 100 µM
same,TGI,[39],> 100 µM
same,TGI,[40],> 100 µM
same,TGI,[41],> 100 µM
same,TGI,[43],> 100 µM
same,TGI,[44],> 100 µM
same,TGI,[45],> 100 µM
same,TGI,[46],> 100 µM
same,TGI,[47],> 100 µM
same,TGI,[49],> 100 µM
same,TGI,[50],> 100 µM
same,TGI,[51],> 100 µM
same,TGI,[52],> 100 µM
same,TGI,[53],> 100 µM
same,TGI,[54],> 100 µM
same,TGI,[55],> 100 µM
